US20160198705A1, “APPLICATION OF BISPHENOL SALT IN PREPARING DISINFECTANT USED FOR STERILIZATION OR FORMALDEHYDE REMOVAL” (NINGBO YUCHEN ENVIROCLEAN TECH CO., LTD., priority 2013, published 2016)

Experiments:
[1] = system: Staphylococcus aureus; assay: Kirby-Bauer diffusion detection of sterilization capability (zone without bacterial growth around the filter paper); format: cell-based; details: for sterilization effect without oxygen ventilation (diameter, mm): pH 10, no ventilation of oxygen
[2] = system: Staphylococcus aureus; assay: as above; format: cell-based
Procedure: In catalyst screening, Staphylococcus aureus was used as the microorganisms, and a trypsin soybean agar was used as a culture medium. The material powder to be screened was prepared into a homogeneous mixture solution by pure water in a 5% weight/volume ratio (i.e., 5 g powder/100 mL water) (in rare cases of low solubility, firstly dissolved with a small amount of glycerol, then diluted with pure water), then immersed with a neutral precise filtration filter paper of 5 mm diameter for about 10 seconds, then placed into a Kirby-Bauer diffusion detection plate. A Kirby-Bauer diffusion detection plate was placed in a sealed glass cover, and the air was provided into the glass cover at a speed of about 10 liters per minute. The sterilizing capability of the catalyst was measured by the diameter of the zone without bacterial growth around the filter paper.
A variety of bisphenol salts were respectively prepared into a water solution with a mass concentration being 5%, and the pH was controlled to 10. The sterilization capability was still detected by Kirby-Bauer diffusion detection method in which Staphylococcus aureus was […] used as the microorganisms, respectively including two cases of no ventilation of oxygen and ventilation of oxygen. When oxygen was ventilated, the condition for oxygen ventilation was the same, the temperature was room temperature (25[…]) and 37[…].
The sterilization capability was detected by Kirby-Bauer diffusion detection method in which Staphylococcus aureus was still used as the microorganisms, and the condition for oxygen ventilation was identical, the temperature was room temperature (25[…]) and 37[…].
Ortho-bisphenol potassium was respectively prepared to form water solutions with a concentration of 5% and pH value of 6, 7, 8, 8.5, 9, 9.5, 10, 10.5, 11, 11.5, 12. The sterilization capability was detected by Kirby-Bauer diffusion detection method in which Staphylococcus aureus was still used as the microorganisms, the condition for oxygen ventilation was identical, the temperature was room temperature (25[…]) and 37[…].

[3] = 5% water solution, pH 10, oxygen ventilation
[4] = 5% weight/volume in pure water, air provided at about 10 liters per minute
[5] = concentration 0.5%, pH 10, oxygen ventilation
[6] = concentration 1.0%, pH 10, oxygen ventilation
[7] = concentration 2.0%, pH 10, oxygen ventilation
[8] = concentration 5%, pH 10, oxygen ventilation
[9] = concentration 10%, pH 10, oxygen ventilation
[10] = concentration 15%, pH 10, oxygen ventilation
[11] = concentration 20%, pH 10, oxygen ventilation
[12] = pH 6, concentration 5%, oxygen ventilation
[13] = pH 7, concentration 5%, oxygen ventilation
[14] = pH 8, concentration 5%, oxygen ventilation
[15] = pH 8.5, concentration 5%, oxygen ventilation
[16] = pH 9, concentration 5%, oxygen ventilation
[17] = pH 9.5, concentration 5%, oxygen ventilation
[18] = pH 10.5, concentration 5%, oxygen ventilation
[19] = pH 11, concentration 5%, oxygen ventilation
[20] = pH 11.5, concentration 5%, oxygen ventilation
[21] = pH 12, concentration 5%, oxygen ventilation
[22] = pH 10, concentration 5%, oxygen ventilation

## [Na+].[Na+].[O-]c1ccccc1Oc1ccccc1[O-]
[1]; 5% water solution
  sterilization effect without oxygen ventilation (diameter, mm): 5 mm
[1]; [3]
  sterilization effect at 25[…] (diameter, mm): 17 mm
  sterilization effect at 37[…] (diameter, mm): 19 mm

## [K+].[K+].[O-]c1ccccc1-c1cc(Cl)ccc1[O-]
[1]; 5% water solution
  sterilization effect without oxygen ventilation (diameter, mm): 3 mm
[1]; [3]
  sterilization effect at 25[…] (diameter, mm): 19 mm
  sterilization effect at 37[…] (diameter, mm): 19 mm

## O=S(=O)([O-])[O-].[Na+].[Na+] [sulfate sodium, reference compound]
[1]; [4]
  sterilization effect: essentially had no effect

## [K+].[K+].[O-]c1ccccc1-c1ccccc1[O-] [ortho-bisphenol potassium]
[1]; 5% water solution
  sterilization effect without oxygen ventilation (diameter, mm): 3 mm
[1]; [3]
  sterilization effect at 25[…] (diameter, mm): 18 mm
  sterilization effect at 37[…] (diameter, mm): 19 mm
[1]; [5]
  sterilization effect at 25[…] (diameter, mm): 8 mm
  sterilization effect at 37[…] (diameter, mm): 9 mm
[1]; [6]
  sterilization effect at 37[…] (diameter, mm): 10 mm
[1]; [7]
  sterilization effect at 25[…] (diameter, mm): 14 mm
  sterilization effect at 37[…] (diameter, mm): 16 mm
[1]; [8]
  sterilization effect at 25[…] (diameter, mm): 18 mm
[1]; [9]
  sterilization effect at 37[…] (diameter, mm): 20 mm
[1]; [10]
  sterilization effect at 25[…] (diameter, mm): 19 mm
  sterilization effect at 37[…] (diameter, mm): 18 mm
[1]; [11]
  sterilization effect at 25[…] (diameter, mm): 17 mm
  sterilization effect at 37[…] (diameter, mm): 19 mm
[1]; [12]
  sterilization effect at 37[…] (diameter, mm): 5 mm
[1]; [13]
  sterilization effect at 25[…] (diameter, mm): 5 mm
  sterilization effect at 37[…] (diameter, mm): 6 mm
[1]; [14]
  sterilization effect at 25[…] (diameter, mm): 8 mm
  sterilization effect at 37[…] (diameter, mm): 9 mm
[1]; [15]
  sterilization effect at 25[…] (diameter, mm): 13 mm
[1]; [16]
  sterilization effect at 37[…] (diameter, mm): 16 mm
[1]; [17]
  sterilization effect at 25[…] (diameter, mm): 16 mm
  sterilization effect at 37[…] (diameter, mm): 16 mm
[1]; [18]
  sterilization effect at 25[…] (diameter, mm): 18 mm
  sterilization effect at 37[…] (diameter, mm): 20 mm
[1]; [19]
  sterilization effect at 25[…] (diameter, mm): 18 mm
  sterilization effect at 37[…] (diameter, mm): 19 mm
[1]; [20]
  sterilization effect at 25[…] (diameter, mm): 20 mm
  sterilization effect at 37[…] (diameter, mm): 19 mm
[1]; [21]
  sterilization effect at 25[…] (diameter, mm): 20 mm
  sterilization effect at 37[…] (diameter, mm): 20 mm
[2]; [6]
  sterilization effect at 25[…] (diameter, mm): 11 mm
[2]; [8]
  sterilization effect at 37[…] (diameter, mm): 19 mm
[2]; [9]
  sterilization effect at 25[…] (diameter, mm): 20 mm
[2]; [12]
  sterilization effect at 25[…] (diameter, mm): 5 mm
[2]; [15]
  sterilization effect at 37[…] (diameter, mm): 14 mm
[2]; [16]
  sterilization effect at 25[…] (diameter, mm): 15 mm
[2]; [22]
  sterilization effect at 25[…] (diameter, mm): 19 mm
  sterilization effect at 37[…] (diameter, mm): 20 mm

## [Cl-].[Na+] [sodium chloride, reference compound]
[1]; [4]
  sterilization effect: essentially had no effect

## [K+].[K+].[O-]c1cccc(Oc2cccc([O-])c2)c1
[1]; 5% water solution
  sterilization effect without oxygen ventilation (diameter, mm): 6 mm
[1]; [3]
  sterilization effect at 25[…] (diameter, mm): 16 mm
  sterilization effect at 37[…] (diameter, mm): 18 mm

## O=C(O)c1ccc(-c2ccccc2[O-])c([O-])c1.[K+].[K+]
[1]; 5% water solution
  sterilization effect without oxygen ventilation (diameter, mm): 2 mm
[1]; [3]
  sterilization effect at 25[…] (diameter, mm): 19 mm
  sterilization effect at 37[…] (diameter, mm): 19 mm

## [K+].[K+].[O-]c1cccc(-c2cccc([O-])c2)c1
[1]; 5% water solution
  sterilization effect without oxygen ventilation (diameter, mm): 2 mm
[1]; [3]
  sterilization effect at 25[…] (diameter, mm): 20 mm
  sterilization effect at 37[…] (diameter, mm): 19 mm

## [Na+].[Na+].[O-]c1ccccc1-c1ccccc1[O-] [2,2′-ortho-bisphenol sodium]
[1]; [4]
  inhibition zone diameter: 15 mm
